# Source: patent US7977375B2, “Antibiotic and method of production thereof” (Helmholtz-Zentrum Für Infektionsforschung GmbH, priority 2004, dated 2011)
# Assays:
# [1] = test system: Candida krusei DSM 6128; assay: MIC / MBC in liquid culture; assay type: cell-based; conditions: Pichia kudriavzevii, DSM6128, read-out: MIC (minimal inhibitory concentration)
# [2] = test system: Candida albicans DSM 11225; assay: MIC / MBC in liquid culture; assay type: cell-based; conditions: DSM11225, read-out: MIC (minimal inhibitory concentration)
# [3] = test system: Candida parapsilosis DSM5784; assay: MIC / MBC in liquid culture; assay type: cell-based; conditions: Lodderomyces parapsilosis, read-out: MIC (minimal inhibitory concentration)
# [4] = test system: MRSA 3 (methicillin-resistant S. aureus, clinical isolate); assay: agar diffusion method, inhibition zone; assay type: cell-based, Staphylococcus aureus; conditions: MRSA 3; MH agar, 18 hours at 37° C.; per disk 10 μl crude extract, 50 μg macrolactin, 78 μg erythromycin, 30 μg vancomycin, 10 μg ampicillin
# Experimental: (§1) The agar diffusion method employing Mueller-Hinton (MH) agar (Difco Laboratories) was used to determine effectiveness against bacteria and yeasts. Sterile paper disks (Schleicher & Schüell, Germany) were seeded with 10 μl crude extract or with a solution of purified macrolactin (final compound concentration on the disk 50 μg) and then placed on the surface of MH-agar plates that had been seeded beforehand with a suspension of overnight culture of the test microorganisms at a concentration of 10^5 cells/ml.
# [5] = test system: S. aureus DSMZ 1104; assay: agar diffusion method, inhibition zone; assay type: cell-based, Staphylococcus aureus; conditions: S. aureus DSMZ 1104; MH agar, 18 hours at 37° C.; per disk 10 μl crude extract, 50 μg macrolactin, 78 μg erythromycin, 30 μg vancomycin, 10 μg ampicillin
# Experimental: as §1
# [6] = test system: MRSA 2 (methicillin-resistant S. aureus, clinical isolate); assay: agar diffusion method, inhibition zone; assay type: cell-based, Staphylococcus aureus; conditions: MRSA 2; MH agar, 18 hours at 37° C.; per disk 10 μl crude extract, 50 μg macrolactin, 78 μg erythromycin, 30 μg vancomycin, 10 μg ampicillin
# Experimental: as §1
# [7] = test system: S. aureus # (own collection, methicillin-sensitive control strain); assay: agar diffusion method, inhibition zone; assay type: cell-based, Staphylococcus aureus; conditions: S. aureus # own collection; MH agar, 18 hours at 37° C.; per disk 10 μl crude extract, 50 μg macrolactin, 78 μg erythromycin, 30 μg vancomycin, 10 μg ampicillin
# Experimental: as §1
# [8] = test system: L929 mouse fibroblast cells; assay: inhibition of proliferation, CyQUANT cell proliferation test; assay type: cell-based; conditions: 5 days
# Experimental: The cytotoxicity of 7-O-malonyl macrolactin A was compared to that of 7-O-succinyl macrolactin A and macrolactin A in vitro with respect to the inhibition of the proliferation of L929 mouse fibroblast cells or the human epithelial cell line HeLa.
# For the cell culture, the HeLa cells were cultivated in low-glucose DMEM medium (Gibco), and the L929 cells in high-glucose DMEM medium. Both were supplemented with 10% by volume foetal calf serum (Gibco) at 37° C. in an atmosphere containing 5% CO2. The cells were extracted from stock cultures by means of trypsinization with EDTA (HeLa) or without EDTA (L929), then counted and diluted to 2×10^5 cells/ml. For the tests, microtitre plates (Nunc.) comprising 96 depressions were plated out in serial dilution without or in the presence of the test compounds or methanol. Determination of morphological alterations of the cells was carried out by means of phase contrast microscopy after 1, 2 and 5 days incubation.
# After 5 days cultivation, cell counts were determined by the CyQUANT cell proliferation test (Molecular Probes), which is a highly sensitive microtitre plate test based on fluorescence. The test employs the dye CyQUANT, which, by binding to cellular nucleic acids, enhances fluorescence, which can then be measured by fluorescein excitation. The emission of fluorescence by the dye-nucleic acid complex correlated linearly with the cell count. For test purposes, the residue was carefully removed after 5 days incubation, the cells washed with PBS (phosphate buffered saline solution), the buffer removed and the cells frozen at −80° C. For the test, the cells were thawed at ambient temperature and lysated in a buffered solution containing the dye CyQUANT, in accordance with manufacturer's instructions. Fluorescence was measured by means of a fluormetric microtitre-plate reader (Titertex Fluorskan II) (excitation at 480 nm, emission at 520 nm). The […] were used to calculate the percentage of cellular proliferation in medium both alone and in the presence of serial dilutions of methanol and the macrolactin compounds. […] Proliferation was measured by means of the fluorescence-based test CyQUANT for determining viable cell counts. Table 5 illustrates the relative inhibition of proliferation as compared to a control culture comprising fresh medium without the addition of a macrolactin.
# [9] = test system: HIV; conditions: state of the art; cited from earlier work
# [10] = test system: E. faecalis ATCC 29212; assay: agar diffusion method, inhibition zone; assay type: cell-based, Enterococcus faecalis; conditions: E. faecalis ATCC 29212; MH agar, 18 hours at 37° C.; per disk 10 μl crude extract, 50 μg macrolactin, 78 μg erythromycin, 30 μg vancomycin, 10 μg ampicillin
# Experimental: as §1
# [11] = test system: E. faecalis VRAS E305; assay: agar diffusion method, inhibition zone; assay type: cell-based, Enterococcus faecalis; conditions: E. faecalis VRAS E305; MH agar, 18 hours at 37° C.; per disk 10 μl crude extract, 50 μg macrolactin, 78 μg erythromycin, 30 μg vancomycin, 10 μg ampicillin
# Experimental: as §1
# [12] = test system: E. faecium VRAR E315; assay: agar diffusion method, inhibition zone; assay type: cell-based, Enterococcus faecium; conditions: E. faecium VRAR E315; MH agar, 18 hours at 37° C.; per disk 10 μl crude extract, 50 μg macrolactin, 78 μg erythromycin, 30 μg vancomycin, 10 μg ampicillin
# Experimental: as §1
# [13] = test system: B. cepacia SCV 141; assay: agar diffusion method, inhibition zone; assay type: cell-based, Burkholderia cepacia; conditions: MH agar, 18 hours at 37° C., per disk 10 μl crude extract, 50 μg macrolactin, 78 μg erythromycin, 10 μg ampicillin
# Experimental: as §1
# The B. cepacia strain used, which is a clinical isolate from a cystic fibrosis patient, forms small colonies (SCV 141).
# [14] = test system: bacteria; conditions: state of the art; cited from earlier work
# [15] = state of the art; cited from earlier work
# [16] = JP 9301970; cited from earlier work
compound,measurement,setting,value
"Clc1ccc(COC(Cn2ccnc2)c2ccc(Cl)cc2Cl)c(Cl)c1 (stereo not drawn) [MCZ, miconazol]",MIC,[1],2 µg/mL
same,MIC,[2],2 µg/mL
same,MIC,[3],2 µg/mL
"C[C@@H]1CCC/C=C/C=C/C(O)CC(O)C/C=C\C=C\C(O)C/C=C/C=C\C(=O)O1 (stereo partly drawn) [Macrolactin A, 8, 14, 16-trihydroxy-24(R)-methyl-oxacyclotetracosa-3(Z), 5(B), 9(E), 11(Z), 17(E), 19(E)-hexaen-2-on]",Inhibition zone,[4],35 mm
same,Inhibition zone,[5],18 mm
same,Inhibition zone,[6],27 mm
same,Inhibition zone,[7],25 mm
same,Inhibition of proliferation,[8]; compound concentration 3.9 μg/ml,23%
same,Inhibition of proliferation,[8]; compound concentration 7.8 μg/ml,29%
same,Inhibition of proliferation,[8]; compound concentration 15.6 μg/ml,38%
same,Inhibition of proliferation,[8]; compound concentration 31.25 μg/ml,81%
same,Inhibition of proliferation,[8]; compound concentration 56.5 μg/ml,83%
same,Inhibition of proliferation,[8]; compound concentration 125 μg/ml,83%
same,antiviral activity,[9],active against HIV
same,Inhibition zone,[10],0 mm
same,Inhibition zone,[11],0 mm
same,Inhibition zone,[12],0 mm
same,Inhibition zone,[13],0 mm
same,antibacterial activity,[14],relatively weak
same,cytotoxicity,[15],cytotoxic
macrolactin M,antimicrobial activity,[16],antimicrobially active
